US20090324701A1, “COMPOSITIONS CONTAINING (S)-BETHANECHOL AND THEIR USE IN THE TREATMENT OF INSULIN RESISTANCE, TYPE 2 DIABETES, GLUCOSE INTOLERANCE AND RELATED DISORDERS” (DIAMEDICA, INC., priority 2006, published 2009)

Columns and labels:
muscarinic M1 receptors = molecular target: T1, muscarinic M1 receptors (Homo sapiens, UniProt P11229); experiment: Radioligand binding muscarinic M1 binding assay; conditions: for competition with [3H] N-methylscopolamine for binding to muscarinic M1 receptors: in words, refers to Table 1
T1 sequence (P11229 1-460): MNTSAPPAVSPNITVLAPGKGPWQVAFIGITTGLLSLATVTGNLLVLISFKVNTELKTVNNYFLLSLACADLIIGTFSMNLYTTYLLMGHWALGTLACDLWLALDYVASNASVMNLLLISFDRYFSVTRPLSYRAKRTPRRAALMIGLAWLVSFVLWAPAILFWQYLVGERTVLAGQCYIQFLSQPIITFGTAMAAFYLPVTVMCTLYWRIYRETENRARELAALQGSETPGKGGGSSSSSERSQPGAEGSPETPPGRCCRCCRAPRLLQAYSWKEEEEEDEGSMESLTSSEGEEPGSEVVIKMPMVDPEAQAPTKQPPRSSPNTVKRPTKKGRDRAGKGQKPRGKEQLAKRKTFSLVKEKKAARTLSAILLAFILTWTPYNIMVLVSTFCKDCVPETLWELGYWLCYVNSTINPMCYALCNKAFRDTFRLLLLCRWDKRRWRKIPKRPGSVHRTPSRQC
Procedure: (§1) The binding assay methodology was an adaptation of the methodology set out in Buckley N J, Bonner T I, Buckley C M and Brann M R (1989), Antagonist binding properties of five cloned muscarinic receptors expressed in CHO-K1 cells. Mol Pharmacol. 35(4): 469-476 and Luthin G R and Wolfe B B (1984), Comparison of [^3H]pirenzepine and [^3H]quinuclidinylbenzilate binding to muscarine cholinergic receptors in rat brain. J Pharmacol Exp Ther. 228(3):648-655.
(§2) The binding assay was performed under the following conditions:
(§3) Source: human recombinant CHO cells
(§4) Ligand: 0.8 nM [^3H] N-Methylscopolamine
(§5) Incubation Time/Temp: 2 hours at 25° C.
(§6) Incubation Buffer: 50 mM Tris-HCl, pH 7.4, 10 mM MgCl2, 1 mM EDTA
(§7) Non-specific Ligand: 1 μM Atropine
(§8) Quantification Method: radioligand binding Significance Criteria: ≧50% of max stimulation of inhibition

muscarinic M3 receptors = molecular target: T2, muscarinic M3 receptors (Homo sapiens, UniProt P20309); experiment: Radioligand binding muscarinic M3 binding assay; conditions: for competition with [3H] N-methylscopolamine for binding to muscarinic M3 receptors: in words, refers to Table 2
T2 construct: expressed in transfected cells; host or cells: CHO cells
Procedure: as §1, §2, §3, §4, §5, §6, §7
Bmax: 534 pmol/mg protein
as §8

[1] = tested on: rats with denervation induced HDIR; experiment: RIST, reversal of HISS dependent insulin resistance caused by anterior hepatic plexus denervation (Example 8); type: in vivo, male Spraque Dawely rats; conditions: for potentiation for reversing denervation induced HDIR: dose not stated (FIG. 1); for reversal of denervation induced HDIR: in words (FIG. 1); for % Potentiation: potentiation of denervated RIST index
Procedure: The test subjects were male Spraque Dawely rats (supplied by Charles River or The University of Manitoba) weighing between 222.0 to 375 g. The rats were separated into three test groups: For each test group, the rats were fasted for an 8 hour period and then re-fed for a 2 hour period. The rats were anesthetized with pentobarbital sodium (65 mg/kg) and were prepared surgically according to the standard animal preparation used to conduct a control RIST test (Lautt et al., 1998). After surgery the rat stabilizes for 30 minutes. Following the stabilization period and establishment of a baseline, a control RIST was carried out to show the amount of glucose needed to maintain euglycemia after a bolus administration of insulin (50 mU/kg i.v.). The animal underwent surgery to cause insulin resistance. Anterior plexus denervation and portal puncture was performed. After an hour of recovery time a post-denervation RIST was carried out. The inclusion criteria is a RIST index≧250 mg glucose/kg≦140 mg glucose/kg. For each test group, the test compound was administered at various doses μg/kg intraportal venous (0.5 mL bolus, rate of 0.05 mL/min plus 0.03 mL dead-space volume). Following administration of the test compound, a post-administration RIST was carried out and the potentiation calculated as follows: [(Reversal RIST Index−Blocked RIST Index)/Blocked RIST Index]×(100%)=% Potentiation. […] Each test group was repeated using various doses of each test compound to establish a dose-response curve. The doses were determined based upon initial findings.

[2] = tested on: rats with insulin resistance produced by hepatic denervation; experiment: RIST, insulin sensitivity in rats with insulin resistance produced by hepatic denervation (Examples 5-7); type: in vivo, male Spraque Dawely rats; conditions: total dose into the portal vein 0.001 to 0.1 μg/kg beginning 10 minutes prior to insulin (50 mU/kg i.v.); present-tense example
Procedure: The test subjects are male Spraque Dawely rats. The male rat is fasted for an 8 hour period and then re-fed for a 2 hour period. The rat is anesthetized with pentobarbital sodium (65 mg/kg) and is prepared surgically according to the standard animal preparation used to conduct a RIST test (Lautt et al., 1998). After surgery the rat stabilizes for 30 minutes.
Following the stabilization period and establishment of a baseline, a control RIST is carried out to show the amount of glucose needed to maintain euglycemia after a bolus administration of insulin (50 mU/kg i.v.).
The animal undergoes surgery to cause insulin resistance. Surgical denervation of hepatic nerves reaching the liver along the hepatic artery is done. After an hour of recovery time a RIST is then carried out.
Racemic bethanechol is administered to the rat that has been surgically denervated with a total dose into the portal vein of (0.001 to 0.1) μg/kg beginning 10 minutes prior to the insulin administration.
(R)-bethanechol is administered to the rat that has been surgically denervated with a total dose into the portal vein of (0.001 to 0.1) μg/kg beginning 10 minutes prior to the insulin administration.
(S)-bethanechol is administered to the rat that has been surgically denervated with a total dose into the portal vein of (0.001 to 0.1) μg/kg beginning 10 minutes prior to the insulin administration.

[3] = tested on: hepatic glutathione (GSH); experiment: Hepatic glutathione levels in denervated rats (Bioxytech GSH420 kit); type: in vivo; conditions: compared to animals treated with (R)-bethanechol or racemic bethanechol; present-tense example
Procedure: Hepatic glutathione (GSH) levels are determined for test animals from Example 8 which have a control RIST of ≧170 mg glucose/kg≦250 mg glucose mg/kg.
Following the post-denervation RIST analysis, a liver sample is taken from each test animal using cork borer #4 or #5 to remove a section of liver from the left lateral liver lobe. The top and bottom (1-2 mm) of the sample are trimmed and cut into 2 equal pieces. The samples are flash frozen on dry ice in tin foil, and are labeled with the experiment number and date. The samples are stored at −80 until GSH analysis is performed. Liver GSH levels are determined using the Bioxytech GSH420 kit.

[4] = compound 100 μm, 0.8 nM [3H] N-Methylscopolamine, human recombinant CHO cells
[5] = as compared to R-bethanechol and racemic bethanechol

T2 sequence (P20309 whole entry): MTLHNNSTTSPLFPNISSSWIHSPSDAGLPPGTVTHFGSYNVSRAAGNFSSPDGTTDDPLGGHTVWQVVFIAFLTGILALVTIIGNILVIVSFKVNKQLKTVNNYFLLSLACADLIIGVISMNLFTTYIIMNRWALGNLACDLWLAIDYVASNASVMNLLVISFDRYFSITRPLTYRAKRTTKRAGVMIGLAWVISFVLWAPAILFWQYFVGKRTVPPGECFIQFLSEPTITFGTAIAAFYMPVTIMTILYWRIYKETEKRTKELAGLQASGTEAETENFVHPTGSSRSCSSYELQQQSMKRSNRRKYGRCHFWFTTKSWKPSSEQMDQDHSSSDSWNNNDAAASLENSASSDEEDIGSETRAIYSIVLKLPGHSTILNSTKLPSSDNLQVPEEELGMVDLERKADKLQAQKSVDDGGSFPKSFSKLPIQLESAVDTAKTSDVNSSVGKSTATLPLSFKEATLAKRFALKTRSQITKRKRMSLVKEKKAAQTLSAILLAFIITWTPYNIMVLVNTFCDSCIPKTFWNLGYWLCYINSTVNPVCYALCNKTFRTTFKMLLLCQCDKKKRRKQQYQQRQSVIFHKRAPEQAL

Row | Structure (SMILES) | competition with [3H] N-methylscopolamine for binding to muscarinic M1 receptors (muscarinic M1 receptors) | competition with [3H] N-methylscopolamine for binding to muscarinic M3 receptors (muscarinic M3 receptors) | potentiation for reversing denervation induced HDIR [1] | reversal of denervation induced HDIR [1] | RIST index: restoration of insulin sensitivity [2] | % Inhibition (muscarinic M1 receptors; [4]) [%] | % Inhibition (muscarinic M3 receptors; [4]) [%] | other results
1 | CC(C[N+](C)(C)C)OC(N)=O (racemic) [racemic bethanechol, bethanechol] | did not compete | did not compete | ca. 52% | substantial reversal | restores insulin sensitivity |  |  | inhibition at 100 µM (muscarinic M1 receptors; [4]): -4%; inhibition at 100 µM (muscarinic M3 receptors; [4]): -5%
2 | C[C@H](C[N+](C)(C)C)OC(N)=O.[Cl-] [(R)-bethanechol, (R)-(−)-2-Carbamyloxy-1-(N,N,N-trimethyl)-propylammonium chloride] | did not compete | did not compete |  | no significant reversal | does not significantly restore insulin sensitivity | 0 | −11 | 
3 | C[C@@H](C[N+](C)(C)C)OC(N)=O.[Cl-] [(S)-bethanechol, (S)-(+)-2-Carbamyloxy-1-(N,N,N-trimethyl)-propylammonium chloride] |  |  | ca. 72% | substantial reversal | restores insulin sensitivity better than racemic bethanecol | 31 | 42 | binding affinity for muscarinic M1 receptors (muscarinic M1 receptors; [5]): significantly higher; binding affinity for muscarinic M3 receptors (muscarinic M3 receptors; [5]): significantly higher; increases in hepatic GSH levels [3]: greater increases in hepatic GSH levels; % Potentiation ([1]; dose 0.005 μg/kg intraportal venous): −1.81%; % Potentiation ([1]; dose 0.010 μg/kg intraportal venous): −13.01%; % Potentiation ([1]; dose 0.025 μg/kg intraportal venous): 12.24%; % Potentiation ([1]; dose 0.050 μg/kg intraportal venous): 34.66%; % Potentiation ([1]; dose 0.100 μg/kg intraportal venous): 48.29%; % Potentiation ([1]; dose 0.250 μg/kg intraportal venous): 58.16%; % Potentiation ([1]; dose 0.500 μg/kg intraportal venous): 71.19%; % Potentiation ([1]; dose 0.750 μg/kg intraportal venous): 69.08%; % Potentiation ([1]; dose 2.000 μg/kg intraportal venous): 57.21%; % Potentiation ([1]; dose 5.000 μg/kg intraportal venous): 40.27%; reversal of denervation-induced HDIR over dose range ([1]; doses ranging between 0.025 to 5.000 μg/kg, 0.250 to 2.000 μg/kg greatest % potentiation): reversed denervation-induced HDIR
